From US20150031693A1, “PAK INHIBITORS FOR THE TREATMENT OF FRAGILE X SYNDROME” (AFRAXIS HOLDINGS, INC., priority 2011, published 2015)

Assays:
PAK1 [1] = biological target: T1, PAK1 (Homo sapiens, UniProt Q13153); assay: In vitro PAK inhibition assay (Z'-LYTE), PAK1; type: biochemical
Procedure: (§1) In Vitro PAK Inhibition Assay
(§2) Compounds are screened in 1% DMSO (final) in the well. For 10 point titrations, 3-fold serial dilutions are conducted. All Peptide/Kinase Mixtures are diluted to a 2× working concentration in the appropriate Kinase Buffer
(§3) The 2× PAK1/Ser/Thr 19 mixture is prepared in 50 mM HEPES pH 7.5, 0.01% BRIJ-35, 10 mM MgCl2, 1 mM EGTA. The final 10 μL Kinase Reaction consists of 2.71-30.8 ng PAK1 and 2 μM Ser/Thr 19 in 50 mM HEPES pH 7.5, 0.01% BRIJ-35, 10 mM MgCl2, 1 mM EGTA. After the 1 hour Kinase Reaction incubation, 5 μL of a 1:128 dilution of Development Reagent A is added.
(§4) Bar-coded Corning, low volume NBS, black 384-well plate (Corning Cat. #3676) • 1. Add the following solutions to a well in a 384-well plate: 2.5 μL of 4× Test Compound OR (100 nL 100× Test Compound plus 2.4 μL kinase buffer) • 5 μL of 2× Peptide/Kinase (PAK) Mixture • 2.5 μL of 4× ATP Solution • 2. Shake the plate for 30-seconds • 3. Incubate the PAK Kinase Reaction at room temperature for 60-minutes • 4. Add 5 μL of Development Reagent Solution to each well • 5. Shake the plate for 30-seconds • 6. Incubate the Development Reaction for 60-minutes • 7. Determine the fluorescence using a fluorescence plate reader • 8. Analyze the fluorescence data
(§5) SelectScreen® Kinase Profiling Service uses XLfit from IDBS. The dose response curve is curve fit to model number 205 (sigmoidal dose-response model).
(§6) The table below provides specifications and data around each kinase. The representative IC50 value with a known inhibitor for each kinase was determined at the ATP bin nearest to the ATP Km app.

PAK2 (PAK65) = PAK2 (PAK65) (Homo sapiens, UniProt Q13177); assay: In vitro PAK inhibition assay (Z'-LYTE), PAK2; type: biochemical
Sequence of PAK2 (PAK65) (Q13177 whole entry): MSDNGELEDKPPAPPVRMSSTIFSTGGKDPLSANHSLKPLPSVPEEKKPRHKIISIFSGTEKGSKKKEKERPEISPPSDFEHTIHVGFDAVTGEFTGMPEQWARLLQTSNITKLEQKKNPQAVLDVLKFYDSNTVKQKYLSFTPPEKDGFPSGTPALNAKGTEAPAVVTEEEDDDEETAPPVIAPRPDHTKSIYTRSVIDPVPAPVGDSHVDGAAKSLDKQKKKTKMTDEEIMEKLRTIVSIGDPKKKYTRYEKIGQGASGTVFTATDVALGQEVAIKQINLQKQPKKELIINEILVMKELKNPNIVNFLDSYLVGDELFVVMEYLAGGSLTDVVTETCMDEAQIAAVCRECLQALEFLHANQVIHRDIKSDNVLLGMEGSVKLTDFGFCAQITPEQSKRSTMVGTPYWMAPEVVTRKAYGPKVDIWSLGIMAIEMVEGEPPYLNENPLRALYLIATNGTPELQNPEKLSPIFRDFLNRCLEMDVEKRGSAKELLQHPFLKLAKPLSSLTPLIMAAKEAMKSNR
Procedure: as §1, §2
as §3, with “PAK2 (PAK65)/Ser/Thr 20” for “PAK1/Ser/Thr 19”, “0.29-6” for “2.71-30.8”, “PAK2 (PAK65)” for “PAK1”, “20” for “19”, “1:256” for “1:128”
as §4, §5, §6

PAK3 = PAK3 (Homo sapiens, UniProt O75914); assay: In vitro PAK inhibition assay (Z'-LYTE), PAK3; type: biochemical
Sequence of PAK3 (O75914 whole entry): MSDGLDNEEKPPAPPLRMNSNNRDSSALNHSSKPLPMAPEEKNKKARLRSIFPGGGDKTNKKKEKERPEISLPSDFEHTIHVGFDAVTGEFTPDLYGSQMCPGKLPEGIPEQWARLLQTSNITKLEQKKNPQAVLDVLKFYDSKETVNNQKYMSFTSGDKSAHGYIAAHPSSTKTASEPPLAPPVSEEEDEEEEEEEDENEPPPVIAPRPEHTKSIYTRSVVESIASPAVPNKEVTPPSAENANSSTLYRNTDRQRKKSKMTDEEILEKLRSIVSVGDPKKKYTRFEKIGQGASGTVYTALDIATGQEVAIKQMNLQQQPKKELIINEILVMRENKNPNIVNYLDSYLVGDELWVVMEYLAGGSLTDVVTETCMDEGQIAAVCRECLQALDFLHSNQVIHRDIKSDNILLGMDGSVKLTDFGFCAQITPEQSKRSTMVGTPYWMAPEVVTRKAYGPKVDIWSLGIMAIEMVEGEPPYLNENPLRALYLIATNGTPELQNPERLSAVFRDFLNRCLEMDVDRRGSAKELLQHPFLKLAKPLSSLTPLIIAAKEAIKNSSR
Procedure: as §1, §2
as §3, with “PAK3/Ser/Thr 20” for “PAK1/Ser/Thr 19”, “2.25-22” for “2.71-30.8”, “PAK3” for “PAK1”, “20” for “19”, “1:256” for “1:128”
as §4, §5, §6

PAK4 [2] = biological target: T2, PAK4 (Homo sapiens, UniProt O96013); assay: In vitro PAK inhibition assay (Z'-LYTE), PAK4; type: biochemical
T2 sequence (O96013 whole entry): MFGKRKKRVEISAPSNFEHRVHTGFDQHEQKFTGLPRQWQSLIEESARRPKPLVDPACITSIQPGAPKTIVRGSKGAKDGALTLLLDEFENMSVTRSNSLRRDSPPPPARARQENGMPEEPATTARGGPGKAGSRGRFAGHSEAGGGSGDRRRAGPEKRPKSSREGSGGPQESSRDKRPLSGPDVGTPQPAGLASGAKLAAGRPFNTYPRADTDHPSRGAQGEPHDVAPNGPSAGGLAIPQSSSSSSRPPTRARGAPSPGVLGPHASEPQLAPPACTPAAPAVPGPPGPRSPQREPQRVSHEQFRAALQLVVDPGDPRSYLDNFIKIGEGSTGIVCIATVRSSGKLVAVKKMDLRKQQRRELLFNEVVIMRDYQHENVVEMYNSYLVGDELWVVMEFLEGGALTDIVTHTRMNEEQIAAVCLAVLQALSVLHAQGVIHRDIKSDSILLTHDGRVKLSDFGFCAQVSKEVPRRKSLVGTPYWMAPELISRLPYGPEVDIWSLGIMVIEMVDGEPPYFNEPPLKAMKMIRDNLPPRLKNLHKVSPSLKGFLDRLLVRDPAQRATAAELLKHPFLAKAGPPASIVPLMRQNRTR
Procedure: as §1, §2
as §3, with “PAK4/Ser/Thr 20” for “PAK1/Ser/Thr 19”, “0.1-0.75” for “2.71-30.8”, “PAK4” for “PAK1”, “20” for “19”, “1:256” for “1:128”
as §4, §5, §6

p-PAK1(S144) = assay: In vitro cellular HTRF assay for p-PAK1(S144); type: cell-based; settings: cell line RT4-D6P2T, read-out: pPAK1(S144)
Text: (§7) In Vitro p-PAK1(S144) and p-MEK1(S298) Cellular Assay
(§8) The cell line is RT4-D6P2T.

p-MEK1(S298) = assay: In vitro cellular HTRF assay for p-MEK1(S298); type: cell-based; settings: cell line RT4-D6P2T, read-out: pMEK1(S298)
Text: as §7, §8

PAK4 [3] = biological target: T2, PAK4; assay: Additional in vitro PAK inhibition assay, PAK4; type: biochemical; settings: 10 μM ATP
Procedure: (§9) Additional In Vitro PAK Inhibition Assay
(§10) Similar in vitro PAK1 and PAK4 inhibition assay was conducted in compounds for the treatment of Fragile X syndrome, but under ATP concentrations of 10 uM and 1 mM.

PAK1 [4] = biological target: T1, PAK1; assay: Additional in vitro PAK inhibition assay, PAK1; type: biochemical
Procedure: as §9, §10

T1 sequence (Q13153 whole entry): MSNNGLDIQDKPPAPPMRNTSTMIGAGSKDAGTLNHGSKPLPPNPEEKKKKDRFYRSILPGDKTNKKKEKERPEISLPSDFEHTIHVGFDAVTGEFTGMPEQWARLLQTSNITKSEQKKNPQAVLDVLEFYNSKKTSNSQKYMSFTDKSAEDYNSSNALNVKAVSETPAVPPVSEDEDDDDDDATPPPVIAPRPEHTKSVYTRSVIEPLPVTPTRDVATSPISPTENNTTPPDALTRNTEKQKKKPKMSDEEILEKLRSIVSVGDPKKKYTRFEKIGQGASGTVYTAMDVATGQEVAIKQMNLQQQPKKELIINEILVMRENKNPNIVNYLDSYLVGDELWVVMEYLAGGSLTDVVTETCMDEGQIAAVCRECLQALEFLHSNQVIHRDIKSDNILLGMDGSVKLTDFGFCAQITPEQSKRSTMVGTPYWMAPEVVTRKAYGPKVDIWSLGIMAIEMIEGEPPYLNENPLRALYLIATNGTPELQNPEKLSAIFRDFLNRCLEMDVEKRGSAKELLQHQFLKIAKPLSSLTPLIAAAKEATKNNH

Compound	IC50 (PAK1 [1])	IC50 (PAK2 (PAK65))	IC50 (PAK3)	IC50 (PAK4 [2])	IC50 (p-PAK1(S144))	IC50 (p-MEK1(S298))	IC50 (PAK4 [3])	IC50 (PAK1 [4]; 10 μM ATP, read-out: PAK1 IC50 (10 μM ATP))	IC50 (PAK1 [4]; 1 mM ATP, read-out: PAK1 IC50 (1 mM ATP))
CCn1c(=O)c(-c2ccc(-c3cncc(C)n3)cc2Cl)cc2cnc(NCCCO)nc21 [Example 1, 6-(2-chloro-4-(6-methylpyrazin-2-yl)phenyl)-8-ethyl-2-((3-hydroxypropyl)amino)pyrido[2,3-d]pyrimidin-7(8H)-one]	0.05 to 0.5 µM	0.05 to 0.5 µM	0.05 to 0.5 µM	> 5 µM	–	–	–	–	–
CCn1c(=O)c(-c2ccc(-c3cncc(C)n3)cc2Cl)cc2cnc(NC(CCO)CCO)nc21 [Example 4]	0.5 to 5 µM	0.05 to 0.5 µM	0.5 to 5 µM	> 5 µM	–	–	–	–	–
CCn1c(=O)c(-c2ccc(-c3nccnc3C)cc2Cl)cc2cnc(NCCO)nc21 [Example 6]	0.05 to 0.5 µM	0.05 to 0.5 µM	0.05 to 0.5 µM	> 5 µM	–	–	–	–	–
CCn1c(=O)c(-c2ccc(-c3cncc(C)n3)cc2Cl)cc2cnc(NCCCOC)nc21 [Example 10]	0.05 to 0.5 µM	0.05 to 0.5 µM	0.05 to 0.5 µM	> 5 µM	–	–	–	–	–
CCn1c(=O)c(-c2ccc(-c3nccnc3C)cc2Cl)cc2cnc(NC(CCO)CCO)nc21 [Example 5]	0.5 to 5 µM	0.5 to 5 µM	0.5 to 5 µM	> 5 µM	–	–	–	–	–
CCn1c(=O)c(-c2ccc(-c3cncc(C)n3)cc2Cl)cc2cnc(N[C@H]3CC[C@H](CN(C)C)CC3)nc21	–	–	–	–	0.5 to 5 µM	0.5 to 5 µM	–	–	–
CCn1c(=O)c(-c2ccc(-c3noc(C)n3)cc2Cl)cc2cnc(N[C@@H]3COC[C@@H]3N3CCN(C)CC3)nc21	–	–	–	–	–	–	> 5 µM	0.05 to 0.5 µM	> 5 µM
CCn1c(=O)c(-c2ccc(-c3cncc(C)n3)cc2Cl)cc2cnc(NCCO)nc21 [Example 7]	0.05 to 0.5 µM	0.05 to 0.5 µM	0.05 to 0.5 µM	> 5 µM	–	–	–	–	–
Cc1cncc(-c2ccc(-c3cc4cnc(NC(CCO)CCO)nc4n(Cc4ccccc4C(F)(F)F)c3=O)c(Cl)c2)n1 [Example 2]	0.05 to 0.5 µM	0.05 to 0.5 µM	0.05 to 0.5 µM	> 5 µM	–	–	–	–	–
CCn1c(=O)c(-c2ccc(-c3nccnc3C)cc2Cl)cc2cnc(NCCCOC)nc21 [Example 9]	0.05 to 0.5 µM	0.05 to 0.5 µM	0.5 to 5 µM	> 5 µM	–	–	–	–	–
CCn1c(=O)c(-c2ccc(-c3nccnc3C)cc2Cl)cc2cnc(NCCCO)nc21 [Example 3]	0.05 to 0.5 µM	0.05 to 0.5 µM	0.05 to 0.5 µM	> 5 µM	–	–	–	–	–
CCn1c(=O)c(-c2ccc(-c3nccnc3C)cc2Cl)cc2cnc(NCCOC)nc21 [Example 8]	0.05 to 0.5 µM	0.05 to 0.5 µM	0.5 to 5 µM	> 5 µM	–	–	–	–	–
CCn1c(=O)c(-c2ccc(-c3cncc(C)n3)cc2Cl)cc2cnc(NCCOC)nc21 [Example 11]	0.05 to 0.5 µM	0.05 to 0.5 µM	0.5 to 5 µM	> 5 µM	–	–	–	–	–
